{"source": "PubChem BioAssay (NCI)", "test_in_all_cases": "inhibition of tumour cell growth, NCI panel, 48 h", "key": {"SK-MEL-28 melanoma": {"test_system": "SK-MEL-28 melanoma"}, "HCC-2998 colon": {"test_system": "HCC-2998 colon"}, "U251 CNS": {"test_system": "U251 CNS"}, "SNB-19 CNS": {"test_system": "SNB-19 CNS"}, "LOX IMVI melanoma": {"test_system": "LOX IMVI melanoma"}, "HL-60(TB) leukemia": {"test_system": "HL-60(TB) leukemia"}, "HOP-92 NSCLC": {"test_system": "HOP-92 NSCLC"}, "TK-10 renal": {"test_system": "TK-10 renal"}, "SK-MEL-5 melanoma": {"test_system": "SK-MEL-5 melanoma"}, "SF-295 CNS": {"test_system": "SF-295 CNS"}, "SW-620 colon": {"test_system": "SW-620 colon"}, "NCI-H460 lung": {"test_system": "NCI-H460 lung"}, "CAKI-1 renal": {"test_system": "CAKI-1 renal"}, "PC-3 prostate": {"test_system": "PC-3 prostate"}, "UO-31 renal": {"test_system": "UO-31 renal"}, "SNB-75 CNS": {"test_system": "SNB-75 CNS"}, "HS 578T breast": {"test_system": "HS 578T breast"}, "ACHN renal": {"test_system": "ACHN renal"}, "SN12C renal": {"test_system": "SN12C renal"}, "MDA-MB-468 breast": {"test_system": "MDA-MB-468 breast"}, "OVCAR-4 ovarian": {"test_system": "OVCAR-4 ovarian"}, "UACC-257 melanoma": {"test_system": "UACC-257 melanoma"}, "RXF 393 renal": {"test_system": "RXF 393 renal"}, "HT29 colon": {"test_system": "HT29 colon"}, "NCI-H522 lung": {"test_system": "NCI-H522 lung"}, "BT-549 breast": {"test_system": "BT-549 breast"}}, "note": "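Five compound concentrations were applied to cells in 96-well plates for 48 hours; endpoints were derived by simple linear interpolation of the resulting dose-response curve. GI50 is the concentration that inhibits growth by half. TGI marks complete inhibition of growth.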", "data": [{"compound": "Cn1cc(-c2cc3nc(-c4cn(C)c5ncccc45)cc(N)n3n2)c2ccccc21", "values": [{"measurement": "GI50", "setting": "SK-MEL-28 melanoma", "result": 1.71, "unit": "µM"}, {"measurement": "TGI", "setting": "SK-MEL-28 melanoma", "result": 3.12, "unit": "µM"}, {"measurement": "GI50", "setting": "HCC-2998 colon", "result": 2.26, "unit": "µM"}, {"measurement": "TGI", "setting": "HCC-2998 colon", "result": 5.44, "unit": "µM"}, {"measurement": "GI50", "setting": "U251 CNS", "result": 3.16, "unit": "µM"}, {"measurement": "TGI", "setting": "U251 CNS", "result": 21.4, "unit": "µM"}, {"measurement": "GI50", "setting": "SNB-19 CNS", "result": 5.11, "unit": "µM"}, {"measurement": "TGI", "setting": "SNB-19 CNS", "result": 26.7, "unit": "µM"}, {"measurement": "GI50", "setting": "LOX IMVI melanoma", "result": 2.15, "unit": "µM"}, {"measurement": "TGI", "setting": "LOX IMVI melanoma", "result": 4.65, "unit": "µM"}, {"measurement": "GI50", "setting": "HL-60(TB) leukemia", "result": 2.33, "unit": "µM"}, {"measurement": "TGI", "setting": "HL-60(TB) leukemia", "result": 5.11, "unit": "µM"}, {"measurement": "GI50", "setting": "HOP-92 NSCLC", "result": 2.93, "unit": "µM"}, {"measurement": "TGI", "setting": "HOP-92 NSCLC", "result": 8.33, "unit": "µM"}, {"measurement": "GI50", "setting": "TK-10 renal", "result": 11.6, "unit": "µM"}, {"measurement": "TGI", "setting": "TK-10 renal", "result": 51.6, "unit": "µM"}, {"measurement": "GI50", "setting": "SK-MEL-5 melanoma", "result": 3.44, "unit": "µM"}, {"measurement": "TGI", "setting": "SK-MEL-5 melanoma", "result": 15.7, "unit": "µM"}, {"measurement": "GI50", "setting": "SF-295 CNS", "result": 1.73, "unit": "µM"}, {"measurement": "TGI", "setting": "SF-295 CNS", "result": 3.63, "unit": "µM"}, {"measurement": "GI50", "setting": "SW-620 colon", "result": 4.38, "unit": "µM"}, {"measurement": "TGI", "setting": "SW-620 colon", "result": "> 100", "unit": "µM"}, {"measurement": "GI50", "setting": "NCI-H460 lung", "result": 3.75, "unit": "µM"}, {"measurement": "TGI", "setting": "NCI-H460 lung", "result": 14.7, "unit": "µM"}, {"measurement": "GI50", "setting": "CAKI-1 renal", "result": 3.74, "unit": "µM"}, {"measurement": "TGI", "setting": "CAKI-1 renal", "result": 19.1, "unit": "µM"}, {"measurement": "GI50", "setting": "PC-3 prostate", "result": 5.52, "unit": "µM"}, {"measurement": "TGI", "setting": "PC-3 prostate", "result": 55, "unit": "µM"}, {"measurement": "GI50", "setting": "UO-31 renal", "result": 4.77, "unit": "µM"}, {"measurement": "TGI", "setting": "UO-31 renal", "result": 40.9, "unit": "µM"}, {"measurement": "GI50", "setting": "SNB-75 CNS", "result": 4.97, "unit": "µM"}, {"measurement": "TGI", "setting": "SNB-75 CNS", "result": 24.6, "unit": "µM"}, {"measurement": "GI50", "setting": "HS 578T breast", "result": 2.48, "unit": "µM"}, {"measurement": "TGI", "setting": "HS 578T breast", "result": 8.08, "unit": "µM"}, {"measurement": "GI50", "setting": "ACHN renal", "result": 2.6, "unit": "µM"}, {"measurement": "TGI", "setting": "ACHN renal", "result": 7.42, "unit": "µM"}, {"measurement": "GI50", "setting": "SN12C renal", "result": 2.97, "unit": "µM"}, {"measurement": "TGI", "setting": "SN12C renal", "result": 14.2, "unit": "µM"}, {"measurement": "GI50", "setting": "MDA-MB-468 breast", "result": 2.43, "unit": "µM"}, {"measurement": "TGI", "setting": "MDA-MB-468 breast", "result": 7.76, "unit": "µM"}, {"measurement": "GI50", "setting": "OVCAR-4 ovarian", "result": 2.6, "unit": "µM"}, {"measurement": "TGI", "setting": "OVCAR-4 ovarian", "result": 8.09, "unit": "µM"}, {"measurement": "GI50", "setting": "UACC-257 melanoma", "result": 1.83, "unit": "µM"}, {"measurement": "TGI", "setting": "UACC-257 melanoma", "result": 3.71, "unit": "µM"}, {"measurement": "GI50", "setting": "RXF 393 renal", "result": 2.01, "unit": "µM"}, {"measurement": "TGI", "setting": "RXF 393 renal", "result": 4.01, "unit": "µM"}, {"measurement": "GI50", "setting": "HT29 colon", "result": 2.15, "unit": "µM"}, {"measurement": "TGI", "setting": "HT29 colon", "result": 6.22, "unit": "µM"}, {"measurement": "GI50", "setting": "NCI-H522 lung", "result": 2.35, "unit": "µM"}, {"measurement": "TGI", "setting": "NCI-H522 lung", "result": 5.91, "unit": "µM"}, {"measurement": "GI50", "setting": "BT-549 breast", "result": 10.2, "unit": "µM"}, {"measurement": "TGI", "setting": "BT-549 breast", "result": 24.3, "unit": "µM"}]}]}
